How the values were obtained:
[1] = biological target: T1, Tyrosine-protein kinase ITK/TSK (Homo sapiens) (UniProt Q08881); settings: at 10 µM
T1 sequence (whole entry): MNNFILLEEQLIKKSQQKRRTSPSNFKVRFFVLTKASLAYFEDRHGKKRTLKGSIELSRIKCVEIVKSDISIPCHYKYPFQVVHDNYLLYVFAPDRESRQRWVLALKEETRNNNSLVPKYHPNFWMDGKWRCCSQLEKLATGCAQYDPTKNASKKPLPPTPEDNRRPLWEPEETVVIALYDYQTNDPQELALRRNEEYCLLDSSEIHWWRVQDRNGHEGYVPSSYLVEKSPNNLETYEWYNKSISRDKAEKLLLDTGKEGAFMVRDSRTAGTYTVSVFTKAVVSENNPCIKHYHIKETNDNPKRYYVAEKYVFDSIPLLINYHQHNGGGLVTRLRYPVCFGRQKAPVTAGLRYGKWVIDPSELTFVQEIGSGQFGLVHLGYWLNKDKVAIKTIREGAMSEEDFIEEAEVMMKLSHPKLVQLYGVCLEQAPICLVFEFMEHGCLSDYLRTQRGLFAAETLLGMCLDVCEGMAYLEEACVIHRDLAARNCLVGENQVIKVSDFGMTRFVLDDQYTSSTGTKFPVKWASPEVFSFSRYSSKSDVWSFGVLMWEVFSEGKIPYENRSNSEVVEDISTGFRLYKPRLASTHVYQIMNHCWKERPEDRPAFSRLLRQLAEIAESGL

[2] = biological target: Serine/threonine-protein kinase/endoribonuclease IRE2 (Homo sapiens) (UniProt Q76MJ5); experiment: Selectivity interaction (LanthaScreen Eu Kinase Binding Assay) EUB0001632a ERN2; settings: at 10 µM
Sequence of Serine/threonine-protein kinase/endoribonuclease IRE2 (Homo sapiens) (Q76MJ5 35-926 limits assumed): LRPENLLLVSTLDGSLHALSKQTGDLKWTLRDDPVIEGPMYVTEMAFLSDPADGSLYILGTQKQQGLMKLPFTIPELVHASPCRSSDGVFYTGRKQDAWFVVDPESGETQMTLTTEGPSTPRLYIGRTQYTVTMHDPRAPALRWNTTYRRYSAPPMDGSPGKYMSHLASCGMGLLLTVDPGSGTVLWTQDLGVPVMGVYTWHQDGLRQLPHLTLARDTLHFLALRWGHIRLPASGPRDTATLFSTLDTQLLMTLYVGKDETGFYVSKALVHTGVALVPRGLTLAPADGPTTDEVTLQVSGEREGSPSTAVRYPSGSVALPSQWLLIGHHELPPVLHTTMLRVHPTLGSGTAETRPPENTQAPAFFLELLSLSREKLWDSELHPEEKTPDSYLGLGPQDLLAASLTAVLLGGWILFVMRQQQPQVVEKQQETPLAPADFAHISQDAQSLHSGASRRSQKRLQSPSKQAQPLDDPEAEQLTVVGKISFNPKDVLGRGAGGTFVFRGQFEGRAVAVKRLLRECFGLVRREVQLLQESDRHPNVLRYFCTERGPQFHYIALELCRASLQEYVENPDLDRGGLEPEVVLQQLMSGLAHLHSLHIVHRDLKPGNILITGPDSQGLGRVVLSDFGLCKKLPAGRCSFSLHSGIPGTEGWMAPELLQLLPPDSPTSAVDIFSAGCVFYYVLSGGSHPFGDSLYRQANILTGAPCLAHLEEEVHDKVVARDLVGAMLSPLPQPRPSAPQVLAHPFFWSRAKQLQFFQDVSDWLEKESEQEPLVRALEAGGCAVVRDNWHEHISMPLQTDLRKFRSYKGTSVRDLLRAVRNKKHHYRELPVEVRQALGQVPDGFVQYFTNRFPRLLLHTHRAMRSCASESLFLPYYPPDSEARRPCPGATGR

[3] = biological target: T2, NUAK family SNF1-like kinase 2 (Homo sapiens) (UniProt Q9H093); experiment: Selectivity interaction (KinomeScan (DiscoverX)) EUB0000045b NUAK2
T2 sequence (whole entry): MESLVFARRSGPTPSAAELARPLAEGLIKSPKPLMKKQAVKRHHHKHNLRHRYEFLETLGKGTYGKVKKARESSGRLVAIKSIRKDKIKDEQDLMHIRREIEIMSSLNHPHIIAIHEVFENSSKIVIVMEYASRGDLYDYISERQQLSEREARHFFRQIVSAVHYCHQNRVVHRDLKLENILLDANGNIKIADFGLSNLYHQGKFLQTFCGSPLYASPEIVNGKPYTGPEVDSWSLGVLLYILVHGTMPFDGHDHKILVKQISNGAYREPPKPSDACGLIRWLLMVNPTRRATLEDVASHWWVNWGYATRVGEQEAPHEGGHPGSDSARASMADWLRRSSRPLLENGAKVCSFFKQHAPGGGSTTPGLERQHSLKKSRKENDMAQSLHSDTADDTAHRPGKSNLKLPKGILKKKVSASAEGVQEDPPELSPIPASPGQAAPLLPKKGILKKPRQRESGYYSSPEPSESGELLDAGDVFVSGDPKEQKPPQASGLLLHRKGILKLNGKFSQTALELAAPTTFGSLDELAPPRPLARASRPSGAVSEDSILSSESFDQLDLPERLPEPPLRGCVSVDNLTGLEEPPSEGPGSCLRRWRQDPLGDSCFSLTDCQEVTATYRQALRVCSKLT

[4] = biological target: Angiopoietin-1 receptor (Homo sapiens) (UniProt Q02763); experiment: Selectivity interaction (KinomeScan (DiscoverX)) EUB0001619a TEK; settings: at 1 µM
Sequence of Angiopoietin-1 receptor (Homo sapiens) (Q02763 whole entry): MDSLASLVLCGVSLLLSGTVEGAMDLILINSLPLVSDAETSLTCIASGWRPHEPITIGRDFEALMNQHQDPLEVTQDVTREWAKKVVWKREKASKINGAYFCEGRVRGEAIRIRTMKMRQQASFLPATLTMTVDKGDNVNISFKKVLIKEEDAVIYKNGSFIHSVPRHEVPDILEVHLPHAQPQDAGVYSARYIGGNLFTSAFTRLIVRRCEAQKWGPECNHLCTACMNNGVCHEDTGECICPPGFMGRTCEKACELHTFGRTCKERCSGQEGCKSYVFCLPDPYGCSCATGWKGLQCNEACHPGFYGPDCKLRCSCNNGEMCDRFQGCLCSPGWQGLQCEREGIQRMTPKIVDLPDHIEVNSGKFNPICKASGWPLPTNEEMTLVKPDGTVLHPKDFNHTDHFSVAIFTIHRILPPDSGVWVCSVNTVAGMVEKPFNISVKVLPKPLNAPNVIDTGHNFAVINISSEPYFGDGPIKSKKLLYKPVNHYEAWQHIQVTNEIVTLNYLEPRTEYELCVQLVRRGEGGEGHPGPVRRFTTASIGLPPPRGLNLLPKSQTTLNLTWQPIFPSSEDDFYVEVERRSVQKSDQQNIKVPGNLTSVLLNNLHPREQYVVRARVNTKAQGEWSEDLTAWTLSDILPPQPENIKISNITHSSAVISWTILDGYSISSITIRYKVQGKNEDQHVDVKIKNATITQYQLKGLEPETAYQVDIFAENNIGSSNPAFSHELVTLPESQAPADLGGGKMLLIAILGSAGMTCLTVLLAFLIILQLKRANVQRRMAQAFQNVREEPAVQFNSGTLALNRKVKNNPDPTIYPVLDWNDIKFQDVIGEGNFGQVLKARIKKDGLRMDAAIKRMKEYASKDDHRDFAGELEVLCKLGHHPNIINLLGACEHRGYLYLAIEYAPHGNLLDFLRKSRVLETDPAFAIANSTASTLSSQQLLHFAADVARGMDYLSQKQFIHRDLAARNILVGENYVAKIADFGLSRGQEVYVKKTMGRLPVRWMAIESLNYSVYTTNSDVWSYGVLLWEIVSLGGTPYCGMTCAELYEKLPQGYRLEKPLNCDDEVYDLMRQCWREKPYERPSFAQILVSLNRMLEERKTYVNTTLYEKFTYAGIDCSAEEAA

[5] = biological target: T3, Receptor-interacting serine/threonine-protein kinase 4 (Homo sapiens) (UniProt P57078); experiment: Selectivity interaction (KinomeScan (DiscoverX)) EUB0001619a RIPK4; settings: at 1 µM
T3 sequence (whole entry): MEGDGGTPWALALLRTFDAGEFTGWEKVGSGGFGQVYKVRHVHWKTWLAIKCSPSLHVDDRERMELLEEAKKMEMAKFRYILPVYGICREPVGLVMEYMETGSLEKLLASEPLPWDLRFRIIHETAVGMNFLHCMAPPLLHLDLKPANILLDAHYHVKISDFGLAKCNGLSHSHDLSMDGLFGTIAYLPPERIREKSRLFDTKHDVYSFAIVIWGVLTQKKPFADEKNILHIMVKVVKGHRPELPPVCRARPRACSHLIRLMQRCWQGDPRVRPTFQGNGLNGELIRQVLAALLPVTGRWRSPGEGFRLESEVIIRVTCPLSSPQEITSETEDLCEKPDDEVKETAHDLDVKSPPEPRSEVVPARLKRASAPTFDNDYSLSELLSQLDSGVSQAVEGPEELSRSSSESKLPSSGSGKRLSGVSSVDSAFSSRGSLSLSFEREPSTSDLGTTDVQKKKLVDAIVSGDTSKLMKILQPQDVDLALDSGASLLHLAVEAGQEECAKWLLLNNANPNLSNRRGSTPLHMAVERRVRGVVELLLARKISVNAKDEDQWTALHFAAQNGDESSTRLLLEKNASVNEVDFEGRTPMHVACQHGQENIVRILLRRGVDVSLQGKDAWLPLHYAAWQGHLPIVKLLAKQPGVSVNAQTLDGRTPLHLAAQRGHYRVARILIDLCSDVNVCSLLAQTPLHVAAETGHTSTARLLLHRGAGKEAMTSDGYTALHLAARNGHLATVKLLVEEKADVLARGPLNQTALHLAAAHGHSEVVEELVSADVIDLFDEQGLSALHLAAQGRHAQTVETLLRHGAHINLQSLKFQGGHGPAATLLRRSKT

## CCN(CC)CCCCNc1ncc2cc(-c3cc(OC)cc(OC)c3)c(NC(=O)NC(C)(C)C)nc2n1
[1]
  % of control: 100%

## Cn1cc(-n2cnc3c(NCc4nc5cc(Cl)c(Cl)cc5[nH]4)nc(N4CCOCC4)nc32)cn1
[2]
  % of inhibition: -30.9%

## C=CC(=O)Nc1cc(-n2c(=O)ccc3cnc4ccc(-c5ccc(NS(C)(=O)=O)cc5)cc4c32)ccc1C
[3]; at 1 µM
  % of control: 100%
[3]; at 10 µM
  % of control: 100%

## N#Cc1cccc(-c2c[nH]c3ncnc(N4CCOCC4)c23)c1
[4]
  % of control: 100%
[5]
  % of control: 57%

Reference: ChEMBL document CHEMBL5465560, “Selectivity Literature for EUbOPEN Chemogenomic Library” (2024)
